Drawing on patent publication US11384063B2, “Modulators of estrogen receptor proteolysis and associated methods of use” (Arvinas Operations, Inc., priority 2017, dated 2022), this text covers DC50, Dmax and IC50 for two molecules.

The target of assay [1] is T1, ERα (Homo sapiens, UniProt P03372).
T1 sequence (P03372 1-595): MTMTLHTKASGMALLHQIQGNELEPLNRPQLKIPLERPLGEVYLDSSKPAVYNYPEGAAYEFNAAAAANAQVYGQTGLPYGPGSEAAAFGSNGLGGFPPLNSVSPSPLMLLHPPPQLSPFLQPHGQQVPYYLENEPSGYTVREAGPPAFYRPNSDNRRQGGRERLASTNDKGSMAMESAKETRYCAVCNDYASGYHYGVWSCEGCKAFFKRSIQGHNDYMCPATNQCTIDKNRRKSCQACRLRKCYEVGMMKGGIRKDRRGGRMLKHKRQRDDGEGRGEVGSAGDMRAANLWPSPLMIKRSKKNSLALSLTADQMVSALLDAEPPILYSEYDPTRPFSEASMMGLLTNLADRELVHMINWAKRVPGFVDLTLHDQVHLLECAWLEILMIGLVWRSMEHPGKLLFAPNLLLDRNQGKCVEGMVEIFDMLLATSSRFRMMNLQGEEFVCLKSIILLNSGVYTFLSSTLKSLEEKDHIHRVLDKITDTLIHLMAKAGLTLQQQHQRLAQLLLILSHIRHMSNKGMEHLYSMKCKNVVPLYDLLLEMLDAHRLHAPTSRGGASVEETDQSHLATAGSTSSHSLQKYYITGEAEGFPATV
The assay is described as follows: Estrogen receptor-alpha (ERα) degradation assay in MCF-7 cells using western blot. The assay is classed as cell-based. On the set-up: assessed for their activity in degrading ERα in MCF-7 cells via western blot; endogenous in cells; host or cells: MCF7 cells. Conditions: ER-alpha degradation, MCF7 cells, 3 days of incubation. In a few lines: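 MCF7 cells in DMEM/F12 with 10% FBS were treated with compounds at 0.3–100 nM (7-point) or 1.2–100 nM (5-point, 72 h), 0.01% DMSO final. Lysates (2 μg protein) were immunoblotted for ERα with tubulin as loading control, ECL detection.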

The target of assay [2] is T1, ERα. Nature of the assay: ERE luciferase reporter gene assay in T47D-KBluc cells (target engagement). The format is cell-based. Also on record: T47D human breast cancer cells stably transfected with estrogen responsive element/promoter/luciferase reporter gene; host or cells: T47D-KBluc cells. Conditions: 10% FBS, 24 hours, Table 2 VHL centric PROTACs, read-out: IC50. In a few lines:
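PROTACs were tested at 12 concentrations from 300 nM down to 2 pM in 3-fold steps for 24 h on T47D-KBluc cells with a stable ERE-driven luciferase. Medium was RPMI with 10% FBS, measured at 10 pM estrogen. IC50 came from luminescence after lysis, in duplicate.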
(In general: A reporter such as luciferase makes a cellular process visible.)

The DC50 is the concentration giving 50% degradation. Usually Dmax stands for the largest share of the target that was removed. Read a low Dmax as shallow degradation. A word on the IC50: it is the concentration that inhibits the measured activity by half. Take `Cc1ncsc1-c1ccc(CNC(=O)[C@@H]2C[C@@H](O)CN2C(=O)[C@@H](NC(=O)COCCCCOc2ccc(-c3ccc(Oc4c(-c5ccc(F)cc5)sc5cc(O)ccc45)cc3)nc2)C(C)(C)C)cc1` [Compound 133, (2S,4R)-1-[(2S)-2-[2-(4-[[6-(4-[[2-(4-fluorophenyl)-6-hydroxy-1-benzothiophen-3-yl]oxy]phenyl)pyridin-3-yl]oxy]butoxy)acetamido]-3,3-dimethylbutanoyl]-4-hydroxy-N-[[4-(4-methyl-1,3-thiazol-5-yl)phenyl]methyl]pyrrolidine-2-carboxamide]: at ERα [1], the 50% degradation concentration (DC50) is 1 to 10 nM and the Dmax was above 75%. On ERα [2], the IC50 is 3.7 nM.

In the case of `Cc1ncsc1-c1ccc(CNC(=O)[C@@H]2C[C@@H](O)CN2C(=O)[C@@H](NC(=O)COCCOC2CN(CCOc3ccc(Oc4c(-c5ccc(F)cc5)sc5cc(O)ccc45)cc3)C2)C(C)(C)C)cc1` [Compound 117, (2S,4R)-1-((S)-2-(2-(2-(1-(2-(4-(2-(4-fluorophenyl)-6-hydroxybenzo[b]thiophen-3-yloxy)phenoxy)ethyl)azetidin-3-yloxy)ethoxy)acetamido)-3,3-dimethylbutanoyl)-4-hydroxy-N-(4-(4-methylthiazol-5-yl)benzyl)pyrrolidine-2-carboxamide], on ERα [1], the DC50 was in the range of 1 to 10 nM and the greatest degradation seen (Dmax) was in the range of 50 to 75%. On ERα [2], the IC50 worked out at 3.3 nM.
